Results on five compounds are retold here after DBAASP.

As a reminder, the MIC is the smallest concentration in the dilution series that meets the test's criterion for growth inhibition.

Structures are written as SMILES. Converted amounts (≈) assume the structure as drawn.

What all share (test): ≥ marks a high value that may be exact or a test limit, other limits are often not marked, values filed in µg/mL are converted to µM
The subject of test [1] is Staphylococcus aureus AS1.72.
For test [2], the system named is Lactococcus lactis AS1.1690.
The subject of test [3] is Pseudomonas aeruginosa CGMCC 1.860.
Test [4] has as its system Bacillus cereus AS1.126.
The subject of test [5] is Escherichia coli AS1.349.
The test system of test [6] is Enterococcus faecium CGMCC 1.2334.
Test [7] concerns Enterococcus faecalis CGMCC 1.595.
Test [8] has as its system Klebsiella pneumoniae Q14-0095.
Test [9] relates to Staphylococcus aureus ATCC 29213.
Test [10] relates to Escherichia coli.
In test [11] the test system is Acinetobacter baumannii Q12-0867.
Test [12] concerns Staphylococcus aureus NCTC 12493.
Test [13] has as its system Pseudomonas aeruginosa.
Test [14] relates to Campylobacter jejuni NCTC 11351.
The subject of test [15] is Klebsiella pneumoniae NCTC 13442.
Test [16] concerns Staphylococcus aureus MRSA-15.
For test [17], the system named is Enterococcus faecalis JH-2-2.
The test system of test [18] is Pseudomonas aeruginosa PAO1.
The test system of test [19] is Campylobacter jejuni.
Test [20] deals with Pseudomonas aeruginosa Q14-0890.
Test [21] deals with Escherichia coli K-12.
Test [22] has as its system Staphylococcus aureus Q14-0320.
The test system of test [23] is Pseudomonas aeruginosa ATCC 27853.
Test [24] has as its system Listeria monocytogenes NCTC 11994.
In test [25] the test system is Salmonella typhimurium SL1344.
Test [26] has as its system Acinetobacter baumannii Q13-0717.
Test [27] has as its system Staphylococcus aureus Q14-0325.
Test [28] has as its system Klebsiella pneumoniae ATCC 700603.
Test [29] concerns Staphylococcus aureus RN4220.
For test [30], the system named is Pseudomonas aeruginosa Q14-0208.
Test [31] has as its system Listeria monocytogenes ATCC 19115.
Test [32] concerns Staphylococcus aureus CMCC 26003.
The test system of test [33] is Candida albicans CCARM 14007.
For test [34], the system named is Candida krusei CCARM 14017.
The subject of test [35] is Colletotrichum gloeosporioides KCTC 6169.
Test [36] relates to Trichoderma viride KCTC 16992.
Test [37] deals with Fusarium verticillioides KCTC 6149.
In test [38] the test system is Fusarium graminearum KCTC 16656.
Test [39] deals with Trichophyton rubrum KCTC 6345.
Test [40] concerns Trichoderma virens KCTC 16924.
In test [41] the test system is Candida parapsilosis CCARM 14016.
Test [42] has as its system Candida albicans KCTC 7270.
For test [43], the system named is Aspergillus flavus KCTC 6905.
Test [44] has as its system Candida albicans CCARM 14020.
The subject of test [45] is Candida albicans CCARM 14001.
In test [46] the test system is Fusarium oxysporum KCTC 16909.
The test system of test [47] is Candida albicans CCARM 14004.
Test [48] concerns Fusarium solani KCTC 6326.

As for `NC(N)=NCCC[C@H](NC(=O)[C@H](Cc1cnc[nH]1)NC(=O)[C@H](Cc1c[nH]c2ccccc12)NC(=O)[C@H](Cc1ccccc1)NC(=O)[C@H](CCCN=C(N)N)NC(=O)[C@H](CCCN=C(N)N)NC(=O)[C@H](Cc1c[nH]c2ccccc12)NC(=O)[C@H](Cc1cnc[nH]1)NC(=O)[C@@H](N)CCCN=C(N)N)C(=O)O` [RHWRRFWHR], the MIC in [1] was determined as 12.5 µM (≈ 18 µg/mL); in [2], 6.25 µM (≈ 8.98 µg/mL); in test [3], 3.13 µM (≈ 4.5 µg/mL); in test [4], 6.25 µM (≈ 8.98 µg/mL); in [5], 6.25 µM (≈ 8.98 µg/mL); in [6] it was 6.25 µM (≈ 8.98 µg/mL). In addition, the MIC in test [7] was found to be 3.13 µM (≈ 4.5 µg/mL).
In the case of `CC[C@H](C)[C@H](NC(=O)CNC(=O)[C@H](CCCN=C(N)N)NC(=O)CNC(=O)[C@H](CCCCN)NC(=O)[C@H](CC(N)=O)NC(=O)[C@H](CCCCN)NC(=O)[C@H](CC(=O)O)NC(=O)[C@H](CCCN=C(N)N)NC(=O)[C@H](CS)NC(=O)[C@H](Cc1ccc(O)cc1)NC(=O)[C@@H](NC(=O)[C@H](CCCCN)NC(=O)[C@H](CC(C)C)NC(=O)[C@H](CCCN=C(N)N)NC(=O)[C@@H](NC(=O)[C@H](Cc1ccccc1)NC(=O)[C@@H](N)CCCCN)C(C)C)[C@@H](C)CC)C(=O)N[C@@H](CO)C(=O)N[C@@H](Cc1ccccc1)C(=O)O` [KFVRLKIYCRDKNKGRGISF], the MIC in [8] is not below 52.7 µM; in [9] it was more than 52.7 µM; in [10], 52.7 µM (≈ 128 µg/mL); in test [11], 26.3 µM (≈ 64 µg/mL); in [12], 26.3 µM (≈ 64 µg/mL); in test [13] it was 13.2 µM (≈ 32 µg/mL). Moreover, the MIC was not below 52.7 µM in test [14]; not below 52.7 µM in test [15]; not below 52.7 µM in test [16]; not below 52.7 µM in [17]; 52.7 µM (≈ 128 µg/mL) in [18]; not below 52.7 µM in test [19]. Further, the MIC was 26.3 µM (≈ 64 µg/mL) in test [20]; 26.3 µM (≈ 64 µg/mL) in [21]; not below 52.7 µM in test [22]; 52.7 µM (≈ 128 µg/mL) in test [23]; not below 52.7 µM in [24]; not below 52.7 µM in [25]. For the same compound, the MIC is not below 52.7 µM in [26]; 26.3 µM (≈ 64 µg/mL) in [27]; 52.7 µM (≈ 128 µg/mL) in [28]; not below 52.7 µM in test [29]; not below 52.7 µM in test [30].
In the case of `CC[C@H](C)[C@H](NC(=O)[C@H](CCCN=C(N)N)NC(=O)[C@H](CCCN=C(N)N)NC(=O)[C@H](CC(C)C)NC(=O)[C@@H](N)Cc1ccccc1)C(=O)N[C@@H](CCCN=C(N)N)C(=O)N[C@H](C(N)=O)C(C)C` [FLRRIRV], the MIC in test [31] and in test [32] was not below 133 µM each time.
For `NCCCC[C@H](NC(=O)[C@H](CCCCN)NC(=O)[C@H](Cc1cnc[nH]1)NC(=O)[C@H](CCCCN)NC(=O)[C@H](CCCCN)NC(=O)[C@H](Cc1cnc[nH]1)NC(=O)[C@H](CCCCN)NC(=O)[C@H](CCCCN)NC(=O)[C@@H](N)Cc1cnc[nH]1)C(N)=O` [HKKHKKHKK], the MIC was not below 64 µM in test [33]; 16 µM (≈ 19.2 µg/mL) in [34]; 8 µM (≈ 9.58 µg/mL) in test [35]; 16 µM (≈ 19.2 µg/mL) in [36]; 16 µM (≈ 19.2 µg/mL) in test [37]; not below 32 µM in [38]. Besides, the MIC in test [39] was not below 32 µM; in test [40], 16 µM (≈ 19.2 µg/mL); in [41] it was not below 32 µM; in [42] it was not below 64 µM; in [43], 16 µM (≈ 19.2 µg/mL); in [44], not below 64 µM. The MIC in test [45] is not below 64 µM; in test [46] it was not below 32 µM; in [47] it was not below 64 µM; in test [48] it was 16 µM (≈ 19.2 µg/mL).
Regarding `NCCCC[C@H](NC(=O)[C@H](CCCCN)NC(=O)[C@H](Cc1cnc[nH]1)NC(=O)[C@H](CCCCN)NC(=O)[C@H](CCCCN)NC(=O)[C@H](Cc1cnc[nH]1)NC(=O)[C@H](CCCCN)NC(=O)[C@H](CCCCN)NC(=O)[C@H](Cc1cnc[nH]1)NC(=O)[C@H](CCCCN)NC(=O)[C@H](CCCCN)NC(=O)[C@H](Cc1cnc[nH]1)NC(=O)[C@H](CCCCN)NC(=O)[C@H](CCCCN)NC(=O)[C@H](Cc1cnc[nH]1)NC(=O)[C@H](CCCCN)NC(=O)[C@H](CCCCN)NC(=O)[C@H](Cc1cnc[nH]1)NC(=O)[C@H](CCCCN)NC(=O)[C@H](CCCCN)NC(=O)[C@H](Cc1cnc[nH]1)NC(=O)[C@H](CCCCN)NC(=O)[C@H](CCCCN)NC(=O)[C@@H](N)Cc1cnc[nH]1)C(N)=O` [HKKHKKHKKHKKHKKHKKHKKHKK], the MIC is 8 µM (≈ 25.3 µg/mL) in test [33]; 4 µM (≈ 12.7 µg/mL) in test [34]; 1 µM (≈ 3.16 µg/mL) in [35]; 1 µM (≈ 3.16 µg/mL) in test [36]; 2 µM (≈ 6.33 µg/mL) in test [37]; 4 µM (≈ 12.7 µg/mL) in [38]. For the same compound, the MIC in test [39] turned out to be 2 µM (≈ 6.33 µg/mL); in test [40], 4 µM (≈ 12.7 µg/mL); in test [41] it was 8 µM (≈ 25.3 µg/mL); in test [42] it was 8 µM (≈ 25.3 µg/mL); in test [43] it was 2 µM (≈ 6.33 µg/mL); in test [44] it was 8 µM (≈ 25.3 µg/mL). Moreover, the MIC in test [45] was 8 µM (≈ 25.3 µg/mL); in test [46], 2 µM (≈ 6.33 µg/mL); in test [47], 8 µM (≈ 25.3 µg/mL); in test [48], 1 µM (≈ 3.16 µg/mL).
